Data reported in patent US20250171457A1, “NITROGEN-CONTAINING HETEROCYCLIC COMPOUND HAVING NRF2 ACTIVATION EFFECT” (CHUGAI SEIYAKU KABUSHIKI KAISHA, priority 2022, published 2025).

tested on: Nrf2 transcriptional activity (pARE-Luc reporter) in HepG2 cells; assay: In vitro Nrf2 transcriptional activity measurement by ARE-dependent reporter assay in HepG2 cell; type: cell-based, human; conditions: Homo sapiens; HepG2 cells transfected with pARE-Luc, 4 hours at 37° C.; luciferase activity of Example 1-54 or Example 17-23 at 3.75 μM defined as 100%
Summary of the method: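 HepG2 cells transfected with pGL4.37 (pARE-Luc), replated onto compound and incubated 4 h at 37° C; luciferase read by Bright-Glo luminescence. Response normalized to 100% set by a reference compound at 3.75 μM; EC50 from dose-response curve.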

SMILES	EC50 [nM]
COC1CN(c2cc(Cl)c(C(=O)N3COc4c(cccc4-c4cc(N5C6CCC5COC6)c(C(=O)O)cc4F)C3)c(Cl)c2)C1 [Compound 4-1, 4-[3-[2,6-Dichloro-4-(3-methoxyazetidin-1-yl)benzoyl]-2,4-dihydro-1,3-benzoxazin-8-yl]-5-fluoro-2-(3-oxa-8-azabicyclo[3.2.1]octan-8-yl)benzoic acid]	3.1
CCOC1(C)CN(c2cc(Cl)c(C(=O)N3COc4c(cccc4-c4cc(N5C6CCC5COC6)c(C(=O)O)cc4F)C3)c(Cl)c2)C1 [Compound 4-2, 4-[3-[2,6-Dichloro-4-(3-ethoxy-3-methylazetidin-1-yl)benzoyl]-2,4-dihydro-1,3-benzoxazin-8-yl]-5-fluoro-2-(3-oxa-8-azabicyclo[3.2.1]octan-8-yl)benzoic acid]	1.2
CCC1(OC)CN(c2cc(Cl)c(C(=O)N3COc4c(cccc4-c4cc(N5C6CCC5COC6)c(C(=O)O)cc4F)C3)c(Cl)c2)C1 [Compound 4-3, 4-[3-[2,6-Dichloro-4-(3-ethyl-3-methoxyazetidin-1-yl)benzoyl]-2,4-dihydro-1,3-benzoxazin-8-yl]-5-fluoro-2-(3-oxa-8-azabicyclo[3.2.1]octan-8-yl)benzoic acid]	1.7
COCC1CN(c2cc(Cl)c(C(=O)N3COc4c(cccc4-c4cc(N5C6CCC5COC6)c(C(=O)O)cc4F)C3)c(Cl)c2)C1 [Compound 4-4, 4-[3-[2,6-Dichloro-4-[3-(methoxymethyl)azetidin-1-yl]benzoyl]-2,4-dihydro-1,3-benzoxazin-8-yl]-5-fluoro-2-(3-oxa-8-azabicyclo[3.2.1]octan-8-yl)benzoic acid]	3.2
COC1(C)CN(c2cc(Cl)c(C(=O)N3COc4c(cccc4-c4cc(N5C6CCC5COC6)c(C(=O)O)cc4F)C3)c(Cl)c2)C1 [Compound 4-5, 4-[3-[2,6-Dichloro-4-(3-methoxy-3-methylazetidin-1-yl)benzoyl]-2,4-dihydro-1,3-benzoxazin-8-yl]-5-fluoro-2-(3-oxa-8-azabicyclo[3.2.1]octan-8-yl)benzoic acid]	1.3
O=C(O)c1cc(F)c(-c2cccc3c2OCN(C(=O)c2c(Cl)cc(N4CC5(COC5)C4)cc2Cl)C3)cc1N1C2CCC1COC2 [Compound 4-6, 4-[3-[2,6-Dichloro-4-(2-oxa-6-azaspiro[3.3]heptan-6-yl)benzoyl]-2,4-dihydro-1,3-benzoxazin-8-yl]-5-fluoro-2-(3-oxa-8-azabicyclo[3.2.1]octan-8-yl)benzoic acid]	8
O=C(O)c1cc(F)c(-c2cccc3c2OCN(C(=O)c2c(Cl)cc(N4CC5(CCC5)C4)cc2Cl)C3)cc1N1C2CCC1COC2 [Compound 4-7, 4-[3-[4-(2-Azaspiro[3.3]heptan-2-yl)-2,6-dichlorobenzoyl]-2,4-dihydro-1,3-benzoxazin-8-yl]-5-fluoro-2-(3-oxa-8-azabicyclo[3.2.1]octan-8-yl)benzoic acid]	3.3
O=C(O)c1cc(F)c(-c2cccc3c2OCN(C(=O)c2c(Cl)cc(N4CCN5CCC[C@@H]5C4)cc2Cl)C3)cc1N1C2CCC1COC2 [Compound 4-9, 4-[3-[4-[(8aR)-3,4,6,7,8,8a-Hexahydro-1H-pyrrolo[1,2-a]pyrazin-2-yl]-2,6-dichlorobenzoyl]-2,4-dihydro-1,3-benzoxazin-8-yl]-5-fluoro-2-(3-oxa-8-azabicyclo[3.2.1]octan-8-yl)benzoic acid]	2.2
O=C(O)c1cc(F)c(-c2cccc3c2OCN(C(=O)c2c(Cl)cc(N4CCN(C5CCOC5)CC4)cc2Cl)C3)cc1N1C2CCC1COC2 (stereo not drawn) [Compound 4-10, 4-[3-[2,6-Dichloro-4-[4-(oxolan-3-yl)piperazin-1-yl]benzoyl]-2,4-dihydro-1,3-benzoxazin-8-yl]-5-fluoro-2-(3-oxa-8-azabicyclo[3.2.1]octan-8-yl)benzoic acid]	4.2
O=C(O)c1cc(F)c(-c2cccc3c2OCN(C(=O)c2c(Cl)cc(N4CCNC5(CC5)C4)cc2Cl)C3)cc1N1C2CCC1COC2 [Compound 4-11, 4-[3-[2,6-Dichloro-4-(4,7-diazaspiro[2.5]octan-7-yl)benzoyl]-2,4-dihydro-1,3-benzoxazin-8-yl]-5-fluoro-2-(3-oxa-8-azabicyclo[3.2.1]octan-8-yl)benzoic acid]	25
O=C(O)c1cc(F)c(-c2cccc3c2OCN(C(=O)c2c(Cl)cc(N4CCN(C5CC5)CC4)cc2Cl)C3)cc1N1C2CCC1COC2 [Compound 4-12, 4-[3-[2,6-Dichloro-4-(4-cyclopropylpiperazin-1-yl)benzoyl]-2,4-dihydro-1,3-benzoxazin-8-yl]-5-fluoro-2-(3-oxa-8-azabicyclo[3.2.1]octan-8-yl)benzoic acid]	2.1
O=C(O)c1cc(F)c(-c2cccc3c2OCN(C(=O)c2c(Cl)cc(N4CCN5CCOC[C@@H]5C4)cc2Cl)C3)cc1N1C2CCC1COC2 [Compound 4-13, 4-[3-[4-[(9aS)-3,4,6,7,9,9a-Hexahydro-1H-pyrazino[2,1-c][1,4]oxazin-8-yl]-2,6-dichlorobenzoyl]-2,4-dihydro-1,3-benzoxazin-8-yl]-5-fluoro-2-(3-oxa-8-azabicyclo[3.2.1]octan-8-yl)benzoic acid]	5.8
O=C(O)c1cc(F)c(-c2cccc3c2OCN(C(=O)c2c(Cl)cc(N4CCN5CCOC[C@H]5C4)cc2Cl)C3)cc1N1C2CCC1COC2 [Compound 4-14, 4-[3-[4-[(9aR)-3,4,6,7,9,9a-Hexahydro-1H-pyrazino[2,1-c][1,4]oxazin-8-yl]-2,6-dichlorobenzoyl]-2,4-dihydro-1,3-benzoxazin-8-yl]-5-fluoro-2-(3-oxa-8-azabicyclo[3.2.1]octan-8-yl)benzoic acid]	9
CC(C)(O)CN1CCN(c2cc(Cl)c(C(=O)N3COc4c(cccc4-c4cc(N5C6CCC5COC6)c(C(=O)O)cc4F)C3)c(Cl)c2)CC1 [Compound 4-15, 4-[3-[2,6-Dichloro-4-[4-(2-hydroxy-2-methylpropyl)piperazin-1-yl]benzoyl]-2,4-dihydro-1,3-benzoxazin-8-yl]-5-fluoro-2-(3-oxa-8-azabicyclo[3.2.1]octan-8-yl)benzoic acid]	3.1
O=C(O)c1cc(F)c(-c2cccc3c2OCN(C(=O)c2c(Cl)cc(N4CCN(CC5CCCO5)CC4)cc2Cl)C3)cc1N1C2CCC1COC2 (stereo not drawn) [Compound 4-16, 4-[3-[2,6-Dichloro-4-[4-(oxolan-2-ylmethyl)piperazin-1-yl]benzoyl]-2,4-dihydro-1,3-benzoxazin-8-yl]-5-fluoro-2-(3-oxa-8-azabicyclo[3.2.1]octan-8-yl)benzoic acid]	2.9
O=C(O)c1cc(F)c(-c2cccc3c2OCN(C(=O)c2c(Cl)cc(N4C[C@@H]5C[C@H]4CO5)cc2Cl)C3)cc1N1C2CCC1COC2 [Compound 4-17, 4-[3-[2,6-Dichloro-4-[(1S,4S)-2-oxa-5-azabicyclo[2.2.1]heptan-5-yl]benzoyl]-2,4-dihydro-1,3-benzoxazin-8-yl]-5-fluoro-2-(3-oxa-8-azabicyclo[3.2.1]octan-8-yl)benzoic acid]	4
C[C@@H]1CN(c2cc(Cl)c(C(=O)N3COc4c(cccc4-c4cc(N5C6CCC5COC6)c(C(=O)O)cc4F)C3)c(Cl)c2)CCO1 [Compound 4-18, 4-[3-[2,6-Dichloro-4-[(2R)-2-methylmorpholin-4-yl]benzoyl]-2,4-dihydro-1,3-benzoxazin-8-yl]-5-fluoro-2-(3-oxa-8-azabicyclo[3.2.1]octan-8-yl)benzoic acid]	3.6
O=C(O)c1cc(F)c(-c2cccc3c2OCN(C(=O)c2c(Cl)cc(N4CCOCC4)cc2Cl)C3)cc1N1C2CCC1COC2 [Compound 4-19, 4-[3-(2,6-Dichloro-4-morpholin-4-ylbenzoyl)-2,4-dihydro-1,3-benzoxazin-8-yl]-5-fluoro-2-(3-oxa-8-azabicyclo[3.2.1]octan-8-yl)benzoic acid]	2.9
O=C(O)c1ccc(-c2cccc3c2OCN(C(=O)c2c(Cl)cc(N4CC[C@@H](O)C4)cc2Cl)C3)cc1N1CCOCC1 [Compound 4-20, 4-[3-[2,6-Dichloro-4-[(3R)-3-hydroxypyrrolidin-1-yl]benzoyl]-2,4-dihydro-1,3-benzoxazin-8-yl]-2-morpholin-4-ylbenzoic acid]	3
O=C(O)c1ccc(-c2cccc3c2OCN(C(=O)c2c(Cl)cc(N4CC5(COC5)C4)cc2Cl)C3)cc1N1CCOCC1 [Compound 4-21, 4-[3-[2,6-Dichloro-4-(2-oxa-6-azaspiro[3.3]heptan-6-yl)benzoyl]-2,4-dihydro-1,3-benzoxazin-8-yl]-2-morpholin-4-ylbenzoic acid]	7.4
CN1CCCN(c2cc(Cl)c(C(=O)N3COc4c(cccc4-c4cc(N5CCOCC5)c(C(=O)O)cc4F)C3)c(Cl)c2)CC1 [Compound 4-22, 4-[3-[2,6-Dichloro-4-(4-methyl-1,4-diazepan-1-yl)benzoyl]-2,4-dihydro-1,3-benzoxazin-8-yl]-5-fluoro-2-morpholin-4-ylbenzoic acid]	1.8
COCCN(C)c1cc(Cl)c(C(=O)N2COc3c(cccc3-c3cc(N4CCOCC4)c(C(=O)O)cc3F)C2)c(Cl)c1 [Compound 4-23, 4-[3-[2,6-Dichloro-4-[2-methoxyethyl(methyl)amino]benzoyl]-2,4-dihydro-1,3-benzoxazin-8-yl]-5-fluoro-2-morpholin-4-ylbenzoic acid]	1.5
O=C(O)c1cc(F)c(-c2cccc3c2OCN(C(=O)c2c(Cl)cc(N4CC5COCC5C4)cc2Cl)C3)cc1N1CCOCC1 (stereo not drawn) [Compound 4-24, 4-[3-[4-(1,3,3a,4,6,6a-Hexahydrofuro[3,4-c]pyrrol-5-yl)-2,6-dichlorobenzoyl]-2,4-dihydro-1,3-benzoxazin-8-yl]-5-fluoro-2-morpholin-4-ylbenzoic acid]	2.7
COCCN1CCCN(c2cc(Cl)c(C(=O)N3COc4c(cccc4-c4cc(N5CCOCC5)c(C(=O)O)cc4F)C3)c(Cl)c2)CC1 [Compound 4-25, 4-[3-[2,6-Dichloro-4-[4-(2-methoxyethyl)-1,4-diazepan-1-yl]benzoyl]-2,4-dihydro-1,3-benzoxazin-8-yl]-5-fluoro-2-morpholin-4-ylbenzoic acid]	1.9
